# Measurements from patent US20250214951A1, “3-PHENYLISOXAZOLE DERIVATIVE, AND PHARMACEUTICAL COMPOSITION FOR PREVENTING OR TREATING EYE DISEASE, CONTAINING SAME AS ACTIVE INGREDIENT” (VASTHERA CO., LTD., priority 2022, published 2025).
# Test system: LC3-II
# Assay: LC3-II production capacity at 10 μM (Table 4)
# Type: cell-based
# Conditions: Homo sapiens, 12 h
# Procedure: ARPE-19 was dispensed into a 6-well plate at a concentration of 1×10^5 cells/well and cultured for 24 hours. Then, cells were treated with example 17 compound of the present invention at concentrations of 10, 25, and 50 μM for 12 hours. Then, a cell lysis buffer containing a protease inhibitor was added to prepare a cell lysate. The LC3-II level was measured by Western immunoblotting using an anti-LC3-II antibody (Cell Signaling Technology, MA, USA). As an internal control, an antibody against β-actin (Cell Signaling Technology) was used and measured by Western immunoblotting in the same manner as above, and is shown in FIG. 6 (upper graph).
# The autophagy activation effect of example compounds expected to have autophagy activation ability and low cytotoxicity among the example compounds in Table 2 above in human retinal pigment epithelial cells was evaluated according to Experimental Example 7. That is, the autophagy activation effect through the increase of LC3-II was evaluated in a concentration-dependent manner, and the results are shown in FIGS. 15 and 16.
row,Compound,fold induction at 10 µM
1,"C=CCc1ccc(OC)c(-c2cc(CN3CCNCC3)on2)c1 [Example 29, 3-(5-allyl-methoxyphenyl)-5-(piperazine-1-ylmethyl)isoxazole]",5.8
2,"COc1ccc(C(F)(F)F)cc1-c1cc(CO)on1 [Example 31, (3-(2-methoxy-5-(trifluoromethyl)phenyl)isoxazole-5-yl)methanol]",0.8
3,"COc1ccc(C(F)(F)F)cc1-c1cc(C(C)(C)O)on1 [Example 32, 2-(3-(2-methoxy-5-(trifluoromethyl)phenyl)isoxazole-5-yl)propan-2-ol]",0.9
4,"COc1ccc(C(F)(F)F)cc1-c1cc(CCO)on1 [Example 33, 2-(3-(2-methoxy-5-(trifluoromethyl)phenyl)isoxazole-5-yl)ethan-1-ol]",1.5
5,"COc1cc(C(F)(F)F)ccc1-c1cc(CO)on1 [Example 35, (3-(2-methoxy-4-(trifluoromethyl)phenyl)isoxazole-5-yl)methanol]",1.1
6,"COc1ccc(C(F)(F)F)cc1-c1cc(COCC(=O)O)on1 [Example 36, 2-((3-(2-methoxy-5-(trifluoromethyl)phenyl)isoxazole-5-yl)methoxy)acetic acid]",2.3
7,"COc1ccc(C(F)(F)F)cc1-c1cc(CN2CCN(C)C(=O)C2)on1 [Example 37, 4-((3-(2-methoxy-5-(trifluoromethyl)phenyl)isoxazole-5-yl)methyl)-1-methylpiperazine-2-on]",2.2
8,"COc1ccc(N2CCOCC2)cc1-c1cc(CO)on1 [Example 38, (3-(2-methoxy-5-morpholinophenyl)isoxazole-5-yl)methanol]",1.2
9,"C=CCc1ccc(OC)c(-c2cc(C(C)(C)O)on2)c1 [Example 39, 2-(3-(5-allyl-2-methoxyphenyl)isoxazole-5-yl)propan-2-ol]",0.7
10,"CCCc1ccc(OC)c(-c2cc(C(C)(C)O)on2)c1 [Example 40, 2-(3-(2-methoxy-5-propylphenyl)isoxazole-5-yl)propan-2-ol]",1.6
11,"C=CCc1ccc(OC(F)(F)F)c(-c2cc(CO)on2)c1 [Example 43, (3-(5-allyl-2-(trifluoromethoxy)phenyl)isooxazole-5-yl)methanol]",19.7
12,"C=CCc1ccc(-c2cc(CO)on2)c(OC)c1 [Example 44, (3-(4-allyl-2-methoxyphenyl)isoxazole-5-yl)methanol]",3.8
13,"COc1ccc(C(C)C)cc1-c1cc(CO)on1 [Example 45, (3-(5-isopropyl-2-methoxyphenyl)isoxazole-5-yl)methanol]",2.5
14,"COc1ccc(C(C)C)cc1-c1cc(CN2CCN(C(=O)OC(C)(C)C)CC2)on1 [Example 46, tert-butyl 4-((3-(5-isopropyl-2-methoxyphenyl)isoxazole-5-yl)methyl)piperazine-1-carboxylate]",1.5
15,"C=CCc1ccc(-c2cc(CN3CCN(C(=O)OC(C)(C)C)CC3)on2)c(OC)c1 [Example 48, tert-butyl 4-((3-(4-allyl-2-methoxyphenyl)isoxazole-5-yl)methyl)piperazine-1-carboxylate]",> 15
16,"C=CCc1ccc(-c2cc(CN3CCNCC3)on2)c(OC)c1 [Example 49, 3-(4-allyl-2-methoxyphenyl)-5-(piperazine-1-ylmethyl)isoxazole]",1.1

row,Compound,fold induction at 10 µM
1,"C=CCc1ccc(OC(F)(F)F)c(-c2cc(CN3CCN(C(=O)OC(C)(C)C)CC3)on2)c1 [Example 50, tert-butyl 4-((3-(5-allyl-2-(trifluoromethoxy)phenyl)isoxazole-5-yl)methyl)piperazine-1-carboxylate]",> 25
2,"C=CCc1ccc(OC(F)(F)F)c(-c2cc(CN3CCNCC3)on2)c1 [Example 51, 3-(5-allyl-2-(trifluoromethoxy)phenyl)-5-(piperazine-1-ylmethyl)isoxazole]",> 15
3,"C=CCc1ccc(OC(F)(F)F)c(-c2cc(CN3CCN(C)CC3)on2)c1 [Example 52, 3-(5-allyl-2-(trifluoromethoxy)phenyl)-5-((4-methylpiperazine-1-yl)methyl)isoxazole]",> 13
4,"CCCc1ccc(OC)c(-c2cc(CN3C[C@@H](C)O[C@@H](C)C3)on2)c1 [Example 53, (2S,6R)-4-((3-(2-methoxy-5-propylphenyl)isoxazole-5-yl)methyl)-2,6-dimethylmorpholine]",0.9
5,"CCCc1ccc(OC)c(-c2cc(CN3CCC(OC)CC3)on2)c1 [Example 54, 3-(2-methoxy-5-propylphenyl)-5-((4-methoxypiperidine-1-yl)methyl)isoxazole]",2.8
6,"CCCc1ccc(OC)c(-c2cc(CN3CCC(C(=O)O)CC3)on2)c1 [Example 55, 1-((3-(2-methoxy-5-propylphenyl)isoxazole-5-yl)methyl)piperidine-4-carboxylic acid]",1.8
7,"CCCc1ccc(OC)c(-c2cc(CN3CCc4sccc4C3)on2)c1 [Example 56, 5-((6,7-dihydrothieno[3,2-c]pyridin-5(4H)-yl)methyl)-3-(2-methoxy-5-propylphenyl)isoxazole]",1.5
8,"CCCc1ccc(OC)c(-c2cc(CN3CCn4ccnc4C3)on2)c1 [Example 57, 5-((5,6-dihydroimidazo[1,2-a]pyrazin-7(8H)-yl)methyl)-3-(2-methoxy-5-propylphenyl)isoxazole]",1.1
9,"COc1ccc(CCO)cc1-c1cc(CN2CCN(C)CC2)on1 [Example 61, 2-(4-methoxy-3-(5-((4-methylpiperazine-1-yl)methyl)isoxazole-3-yl)phenyl)ethan-1-ol]",0.9
10,"COCCc1ccc(OC)c(-c2cc(CN3CCN(C)CC3)on2)c1 [Example 62, 3-(2-methoxy-5-(2-methoxyethyl)phenyl)-5-((4-methylpiperazine-1-yl)methyl)isoxazole]",2.4
11,"COc1ccc(C(C)C)cc1-c1cc(CN2CCN(C(C)=O)CC2)on1 [Example 63, 1-(4-((3-(5-isopropyl-2-methoxyphenyl)isoxazole-5-yl)methyl)piperazine-1-yl)ethan-1-on]",1.9
12,"C=CCc1ccc(OC)c(-c2cc(COc3ncnc4ccccc34)on2)c1 [Example 65, 3-(5-allyl-2-methoxyphenyl)-5-((quinazoline-4-yloxy)methyl)isoxazole]",1.8
13,"C=C(C)Cc1ccc(OC)c(-c2cc(CN3CCN(C(=O)OC(C)(C)C)CC3)on2)c1 [Example 66, tert-butyl 4-((3-(2-methoxy-5-(2-methylallyl)phenyl)isoxazole-5-yl)methyl)piperazine-1-carboxylate]",> 18
14,"C=C(C)Cc1ccc(OC)c(-c2cc(CN3CCNCC3)on2)c1 [Example 67, 3-(2-methoxy-5-(2-methylallyl)phenyl)-5-(piperazine-1-ylmethyl)isoxazole]",22.7
15,"C=C(C)Cc1ccc(OC)c(-c2cc(CO)on2)c1 [Example 68, (3-(2-methoxy-5-(2-methylallyl)phenyl)isoxazole-5-yl)methanol]",7.7
16,"COc1ccc(CC=C(C)C)cc1-c1cc(CN2CCN(C)CC2)on1 [Example 69, 3-(2-methoxy-5-(3-methylbut-2-en-1-yl)phenyl)-5-((4-methylpiperazine-1-yl)methyl)isoxazole]",5
